Values joined by “and” are separate entries in the source; they are usually repeats but may differ in a detail not shown here. Equal values may be shown once. Inconclusive results and toxic doses are left out.
Tested on: CD2F1 mice, L1210 leukemia ip, survival T/C
Experiment: NCI In Vivo Anticancer Drug Screen. Data for tumor model L1210 Leukemia (intraperitoneal) in CD2F1 (CDF1) mice
Settings: higher = longer survival
Procedure, shortened: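 Compound-dosed mice with transplantable tumor versus matched vehicle controls; endpoint ratio T/C reported.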

[1] = endpoint: mean survival time, dose: 100.0 mg/kg/injection, schedule: Q01DX001 (ip), vehicle: saline with Tween-80
[2] = endpoint: mean survival time, dose: 100.0 mg/kg/injection, schedule: Q04DX002 (ip), vehicle: saline with Tween-80
[3] = endpoint: mean survival time, dose: 200.0 mg/kg/injection, schedule: Q01DX001 (ip), vehicle: saline with Tween-80
[4] = endpoint: mean survival time, dose: 200.0 mg/kg/injection, schedule: Q04DX002 (ip), vehicle: saline with Tween-80
[5] = endpoint: mean survival time, dose: 400.0 mg/kg/injection, schedule: Q01DX001 (ip), vehicle: saline with Tween-80
[6] = endpoint: mean survival time, dose: 100.0 mg/kg/injection, schedule: Q01DX009 (ip), vehicle: saline with Tween-80
[7] = endpoint: mean survival time, dose: 200.0 mg/kg/injection, schedule: Q01DX009 (ip), vehicle: saline with Tween-80

For O=c1sc2ccccc2n1CCSCCn1c(=S)sc2ccccc21, the T/C (endpoint: mean survival time, dose: 100.0 mg/kg/injection, schedule: Q04DX003 (ip), vehicle: saline) was 93 % of control, the T/C (endpoint: mean survival time, dose: 200.0 mg/kg/injection, schedule: Q04DX003 (ip), vehicle: saline) was 96 % of control and the T/C (endpoint: mean survival time, dose: 400.0 mg/kg/injection, schedule: Q04DX003 (ip), vehicle: saline) was 96 % of control.
For O=c1[nH]c(=S)c(SCc2ccccc2)nn1C1OC(CO)C(O)C1O (stereo unspecified), the T/C (endpoint: mean survival time, dose: 12.5 mg/kg/injection, schedule: Q01DX005 (ip), vehicle: distilled water + Tween-80) was 95 % of control, the T/C (endpoint: mean survival time, dose: 25.0 mg/kg/injection, schedule: Q01DX005 (ip), vehicle: distilled water + Tween-80) was 97 % of control and the T/C (endpoint: mean survival time, dose: 50.0 mg/kg/injection, schedule: Q01DX005 (ip), vehicle: distilled water + Tween-80) was 100 % of control. The T/C (endpoint: mean survival time, dose: 100.0 mg/kg/injection, schedule: Q01DX005 (ip), vehicle: distilled water + Tween-80) was 95 % of control and the T/C (endpoint: mean survival time, dose: 200.0 mg/kg/injection, schedule: Q01DX005 (ip), vehicle: distilled water + Tween-80) was 94 % of control.
With CCOC(=O)c1cnc(NN)nc1Nc1cc(Cl)cc(Cl)c1 the T/C (endpoint: mean survival time, dose: 6.25 mg/kg/injection, schedule: Q01DX009 (ip), vehicle: saline with Tween-80) was 94 % of control, the T/C (endpoint: mean survival time, dose: 12.5 mg/kg/injection, schedule: Q01DX009 (ip), vehicle: saline with Tween-80) was 86 % of control and the T/C (endpoint: mean survival time, dose: 12.5 mg/kg/injection, schedule: Q04DX003 (ip), vehicle: saline with Tween-80) was 89 % of control. For the same molecule, the T/C (endpoint: mean survival time, dose: 25.0 mg/kg/injection, schedule: Q01DX009 (ip), vehicle: saline with Tween-80) was 95 % of control and the T/C (endpoint: mean survival time, dose: 25.0 mg/kg/injection, schedule: Q04DX003 (ip), vehicle: saline with Tween-80) was 89 % of control.
In the case of CCN(CC)C(=S)S[Se](SC(=S)N(CC)CC)(SC(=S)N(CC)CC)SC(=S)N(CC)CC, the T/C (endpoint: median survival time, dose: 3.12 mg/kg/injection, schedule: Q01DX009 (ip), vehicle: Klucel (hydroxypropylcellulose) (HPC)) is reported as 103 % of control, the T/C (endpoint: median survival time, dose: 6.25 mg/kg/injection, schedule: Q01DX009 (ip), vehicle: Klucel (hydroxypropylcellulose) (HPC)) is reported as 101 % of control and the T/C (endpoint: median survival time, dose: 12.5 mg/kg/injection, schedule: Q01DX009 (ip), vehicle: Klucel (hydroxypropylcellulose) (HPC)) is reported as 95 % of control. For the same molecule, the T/C (endpoint: median survival time, dose: 25.0 mg/kg/injection, schedule: Q01DX009 (ip), vehicle: Klucel (hydroxypropylcellulose) (HPC)) was 93 % of control and the T/C (endpoint: median survival time, dose: 50.0 mg/kg/injection, schedule: Q01DX009 (ip), vehicle: Klucel (hydroxypropylcellulose) (HPC)) was 93 % of control.
NC(=O)CNC1=C(N2CC2)C(=O)C(NCC(N)=O)=C(N2CC2)C1=O was tested, and the T/C (endpoint: mean survival time, dose: 5.0 mg/kg/injection, schedule: Q01DX009 (ip), vehicle: saline) was 172 % of control, the T/C (endpoint: mean survival time, dose: 10.0 mg/kg/injection, schedule: Q01DX009 (ip), vehicle: saline) was 180 % of control and 192 % of control and the T/C (endpoint: mean survival time, dose: 15.0 mg/kg/injection, schedule: Q01DX009 (ip), vehicle: saline) was 91 % of control.
Cc1cc(=O)[nH]c(=S)[nH]1 was tested, and the T/C [1] was 98 % of control, the T/C [2] was 97 % of control and the T/C [3] was 95 % of control. The T/C [4] was 97 % of control and the T/C [5] was 88 % of control.
For ClCCN(CC#CCCCC#CCN(CCCl)CCCl)CCCl, the T/C (endpoint: mean survival time, dose: 3.12 mg/kg/injection, schedule: Q01DX009 (ip), vehicle: saline) was 121 % of control, the T/C (endpoint: mean survival time, dose: 6.25 mg/kg/injection, schedule: Q01DX009 (ip), vehicle: saline) was 119 % of control and 121 % of control and the T/C (endpoint: mean survival time, dose: 25.0 mg/kg/injection, schedule: Q01DX009 (ip), vehicle: saline) was 162 % of control. For the same molecule, the T/C (endpoint: mean survival time, dose: 50.0 mg/kg/injection, schedule: Q01DX009 (ip), vehicle: saline) was 89 % of control and 104 % of control.
In the case of c1ccc2c(c1)sc1[n+]2CCS1, the T/C (endpoint: mean survival time, dose: 75.0 mg/kg/injection, schedule: Q01DX001 (ip), vehicle: saline) is reported as 113 % of control.
CN1CC(=O)C(=N)C1=S was tested, and the T/C [1] was 90 % of control, the T/C [3] was 93 % of control and the T/C [5] was 90 % of control.
With CCN(CC)CCOc1ccc(C2=CC3(CCCCC3)c3ccccc32)cc1 the T/C (endpoint: mean survival time, dose: 12.5 mg/kg/injection, schedule: Q04DX002 (ip), vehicle: saline with Tween-80) was 106 % of control and the T/C (endpoint: mean survival time, dose: 25.0 mg/kg/injection, schedule: Q04DX002 (ip), vehicle: saline with Tween-80) was 98 % of control.
With CCCCCCCCCCCCOCCOCCOCCOCCO the T/C [2] was 98 % of control and the T/C [4] was 102 % of control.
For O=c1c2ccccc2[nH]c2cccc([N+](=O)[O-])c12, the T/C [6] was 102 % of control, the T/C (endpoint: mean survival time, dose: 100.0 mg/kg/injection, schedule: Q04DX003 (ip), vehicle: saline with Tween-80) was 94 % of control and the T/C [7] was 98 % of control. For the same molecule, the T/C (endpoint: mean survival time, dose: 200.0 mg/kg/injection, schedule: Q04DX003 (ip), vehicle: saline with Tween-80) was 94 % of control, the T/C (endpoint: mean survival time, dose: 400.0 mg/kg/injection, schedule: Q01DX009 (ip), vehicle: saline with Tween-80) was 96 % of control and the T/C (endpoint: mean survival time, dose: 400.0 mg/kg/injection, schedule: Q04DX003 (ip), vehicle: saline with Tween-80) was 91 % of control.
For Nc1cccc2scnc12, the T/C [6] was 104 % of control and the T/C [7] was 96 % of control.
Cc1cc(C)c(N(CC(=O)O)S(=O)(=O)c2ccccc2)c(C)c1N(CC(=O)O)S(=O)(=O)c1ccccc1 was tested, and the T/C [1] was 97 % of control, the T/C [3] was 105 % of control and the T/C [5] was 103 % of control.
CN=C(N)N/N=C(\c1ccccc1)c1ccc(Br)cc1 was tested, and the T/C (endpoint: median survival time, dose: 3.12 mg/kg/injection, schedule: Q01DX009 (ip), vehicle: saline) was 100 % of control, the T/C (endpoint: median survival time, dose: 6.25 mg/kg/injection, schedule: Q01DX009 (ip), vehicle: saline) was 106 % of control and the T/C (endpoint: median survival time, dose: 12.5 mg/kg/injection, schedule: Q01DX009 (ip), vehicle: saline) was 107 % of control. For the same molecule, the T/C (endpoint: median survival time, dose: 25.0 mg/kg/injection, schedule: Q01DX009 (ip), vehicle: saline) was 121 % of control.
With COc1ccccc1NC(=O)Oc1ccc(Cl)cc1C the T/C [2] was 103 % of control, the T/C [4] was 100 % of control and the T/C (endpoint: mean survival time, dose: 400.0 mg/kg/injection, schedule: Q04DX002 (ip), vehicle: saline with Tween-80) was 95 % of control.
